Assay results as given in US4412988A, “Hexapeptides” (Roussel Uclaf, priority 1980, dated 1983).

System: rats
Assay: Action against extinction of a practice of active avoiding a negative reinforcement (conditional avoidance response, deWeid apparatus)
Format: in vivo
Conditions: subcutaneous, phosphate-zinc complex, percent relative to conditional responses in first extinction test before treatment; for % of conditional response in course of extinction period after 2 hours: 2 hours after injection, untreated control 60; for % of conditional response in course of extinction period after 4 hours: 4 hours after injection, untreated control 30
Experimental: The action against extinction of a practice of active avoiding a negative reinforcement was determined using an apparatus described by deWeid (Proc. Soc. Ex. Biol. Med.,) Vol. 122 ([…]) p. 28). The practice is effected in a box equipped with a 60 W lamp (conditional stimulus: CS), a mat and an electrifiable floor connected to an electric stimulus which permits the delivery of a painful shock of 75 volts (unconditional stimulus US). The conditional stimulus is present only for 5 seconds, then is associated with an unconditional stimulus just as the animal grips the mat realizing as well the avoidance response desired. The conditional response is acquired when the animal responds to the conditional stimulus.
10 tests at 60 second intervals were effected daily for 3 days and examination of the extinction of the practice realized with suppression of the unconditional stimulus is followed on the 4th day with 3 tests at 2 hour intervals with the animals presenting at least 7 conditional responses.
The compounds were injected subcutaneously as a phosphate-zinc complex before the first test of extinction of practice to group of 5 rats and the results were compared with an untreated control group of rats. The evolution of the conditional response in the course of the period of extinction of practice 2 and 4 hours after the injection of the compound is expressed as the percent of variation with respect to the number of conditional responses observed in the first test of extinction before treatment.

Row | Substance | % of conditional response in course of extinction period after 2 hours (dose 1 μg/rat) [%] | % of conditional response in course of extinction period after 4 hours (dose 1 μg/rat) [%] | % of conditional response in course of extinction period after 2 hours (dose 10 μg/rat) [%] | % of conditional response in course of extinction period after 4 hours (dose 10 μg/rat) [%]
1 | Acetate of cyclic disulfide (1→6) of N-[cysteinylalanylalanylphenylalanyl-D-lysyl]-cysteine [Example 1] | 51 | 49 | 76 | 71
2 | Acetate of cyclic disulide (1→4) of N-[Cysteinylalanylanylcysteinyl-D-lysyl]-phenylalanine [Example 2] | 59 | 35 | 71 | 75
3 | Cyclic disulfide (1→4) of N-[cysteinylglutamylhistidylcysteinyl-D-lysyl]-phenylalanine [Example 3] | 75 | 29 | 70 | 50
